The target of one test is T1, AuroraB (Homo sapiens, UniProt Q96GD4).
T1 construct: 20 μL of AuroraB FL His for a final volume of 41 μL; His
The test can be described thus: AuroraB Homogeneous Time Resolved Fluorescent (HTRF) kinase assay. The test is classed as biochemical. To be noted: average; ATP 23 μM; read-out: AurB_IC50_IP (uM Avg). How it is done: The AuroraB HTRF assay begins with AuroraB in the presence of ATP phosphorylating the biotinylated peptide Histone H3. The reaction incubates for about 90 min. the reaction is quenched by addition of detection reagents, which stop the reaction by diluting out the enzyme and chelating the metals due to the presence of EDTA. After addition, the assay is incubated for about 60 min to allow detection reagents to equilibrate.
The AuroraB HTRF assay comprises 1 μL of compound in 100% DMSO, 20 μL of ATP and biotinylated Histone H3, and 20 μL of AuroraB FL His for a final volume of 41 μL. The final concentration of Histone H3 is 0.1 μM. The final concentration of ATP is 23 μM (Km(app)=23 μM+/−2.6) and the final concentration of AuroraB is 400 pM. Buffer conditions are as follows: 50 mM HEPES pH 7.5, 5 mM NaCl, 0.5 mM MgCl, 0.5 mM MnCl, 2 mM DTT, 0.05% BSA.
The assay is quenched and stopped with 160 μL of detection reagent. Detection reagents are as follows: Buffer made of 50 mM Tris, pH 7.5, 100 mM NaCl, 3 mM EDTA, 0.05% BSA, 0.1% Tween20. Added to this buffer prior to reading is Steptavidin allophycocyanin (SA-APC) at a final conc in the assay of 0.001 mg/mL, and europilated anti-phosphoHistoneH3 Ab (Eu-anti-His H3) at a final conc of 0.064 nM.
The assay plate is read in either a Discovery or a RubyStar. The eu-anti-His H3 is excited at 320 nm and emits at 615 nm to excite the SA-APC which in turn emits at 655 nm. The ratio of SA-APC at 655 nm (excited due to close proximity to the Eu-anti-H is H3 because of phosphorylation of the peptide) to free Eu-anti-His H3 at 615 nm will give substrate phosphorylation.
For orientation: In TR-FRET formats the signal depends on donor and acceptor labels being close together.

Another test relates to HeLa cells. The test can be described thus: HeLa cell 24 hr ploidy assay. Format: cell-based. To be noted: Homo sapiens, 24 hrs treatment, average, read-out: 24h_4N Ploidy EC50_IP (uM Avg). How it is done:
The purpose of this assay is to evaluate the ability of selected individual compounds to induce Deoxyribonucleic acid (DNA) content (ploidy) in cells through failed cell division. Cell cycle analysis is a rapid and efficient way to evaluate the status of DNA content (ploidy) of a given cell. HeLa cells (1×10^4 HeLa cells/well) in 100 ul of media (MEM+10% FBS) were plated in 96-well plates (Packard View) and cultured for 24 hrs at 37° C. maintained in a 5% CO2 atmosphere. The following day, cells were treated for 24 hrs with inhibitor compounds (10 pt. Dose ranging from 0.0024-1.25 umol/L). The compounds were serially diluted in DMSO (0.25% final concentration). The cells were fixed (3.7% Formaldehyde and 1% glutaraldehyde) and permeabilized (1×PBS with 1% BSA and 0.2% Triton X-100) in preparation for nuclear staining. The well plates were stained for 45 minutes at RT in the dark using Hoechest 33342 nuclear stain at 0.5 ug·ml (Stock of 10 mg/ml, Invitrogen, CA, Cat # H3570). The nuclear stain was removed by aspiration and the cells were washed with wash buffer. A Cellomics Array Scan Vti plate reader was used to acquire the DNA ploidy data of the cells using Cell Cycle bioapplication. Numbers for each of “valid cell count/well”, “% of 4N cells” and “% of >4Ncells” were calculated with the assistance of an Activity Base 5.1ca software and dose curves were generated using an XLFit software. With XLFit, final EC50 IP and EC50 transit values, as well as the Max and Min, were calculated for each curve.

The target in another test is T2, AuroraA-TPX2 (Homo sapiens, UniProt O14965).
T2 construct: 20 μL of AuroraA-TPX2 KD GST for a final volume of about 41 μL; GST
T2 sequence (O14965 133-383 limits assumed): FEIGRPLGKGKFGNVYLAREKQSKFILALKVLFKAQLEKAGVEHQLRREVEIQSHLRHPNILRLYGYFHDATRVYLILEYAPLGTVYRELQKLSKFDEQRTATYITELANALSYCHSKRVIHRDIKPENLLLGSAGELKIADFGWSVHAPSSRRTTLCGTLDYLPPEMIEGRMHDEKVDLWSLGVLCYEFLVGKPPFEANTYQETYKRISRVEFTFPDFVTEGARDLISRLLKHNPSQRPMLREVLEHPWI
T2 sequence (Q9ULW0 1-43 partner limits assumed): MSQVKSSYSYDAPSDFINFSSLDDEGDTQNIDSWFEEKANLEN
The test can be described thus: AuroraA-TPX2 Homogeneous Time Resolved Fluorescent (HTRF) kinase assay. Format: biochemical. To be noted: average; ATP about 1 μM; read-out: AurA _IC50_ IP (uM Avg). How it is done: The Aurora-A HTRF assay begins with Aurora-A in the presence of ATP phosphorylating the biotinylated peptide PLK. The reaction incubates for about 120 min. Detection reagents are added to quench the reaction. These agents stop the reaction by diluting out the enzyme and chelating the metals due to the presence of EDTA. After addition, the assay is incubated overnight to allow the detection reagents to equilibrate.
The AuroraA HTRF assay comprises 1 μL of compound in 100% DMSO, 20 μL of ATP and biotinylated PLK, and 20 μL of AuroraA-TPX2 KD GST for a final volume of about 41 μL. The final concentration of PLK is about 1 μM. The final concentration of ATP is about 1 μM (Km(app)=1 μM+/−0.1) and the final concentration of AuroraA is about 5 nM. Buffer conditions are as follows: 60 mM HEPES pH 7.5, 25 mM NaCl, 10 mM MgCl, 2 mM DTT, 0.05% BSA.
The assay is quenched and stopped with 160 μL of detection reagent. Detection reagents are as follows: Buffer made of 50 mM Tris, pH 7.5, 100 mM NaCl, 3 mM EDTA, 0.05% BSA, 0.1% Tween20. Added to this buffer prior to reading is Steptavidin allophycocyanin (SA-APC) at a final conc in the assay of 0.0005 mg/mL, and europilated anti-phosphoPLK Ab (Eu-anti-PLK) at a final conc of 0.02 nM.
The assay plate is read in either a Discovery or a RubyStar. The eu-anti-PLK is excited at 320 nm and emits at 615 nm to excite the SA-APC which in turn emits at 655 nm. The ratio of SA-APC at 655 nm (excited due to close proximity to the Eu-anti-PLK because of phosphorylation of the peptide) to free Eu-anti-PLK at 615 nm will give substrate phosphorylation.

T1 sequence (Q96GD4 whole entry): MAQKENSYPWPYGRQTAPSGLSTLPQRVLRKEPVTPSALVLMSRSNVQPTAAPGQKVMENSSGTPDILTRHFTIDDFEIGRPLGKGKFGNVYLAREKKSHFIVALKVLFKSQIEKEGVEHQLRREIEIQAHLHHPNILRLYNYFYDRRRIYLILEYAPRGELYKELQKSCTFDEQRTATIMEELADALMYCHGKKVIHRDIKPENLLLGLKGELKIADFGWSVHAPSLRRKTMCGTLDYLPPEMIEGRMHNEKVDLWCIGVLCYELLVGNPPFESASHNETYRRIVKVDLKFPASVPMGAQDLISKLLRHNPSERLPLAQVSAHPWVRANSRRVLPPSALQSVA

As to `COc1cc2nccc(Oc3ccc(NC(=O)c4ccccc4Nc4cccc(F)c4)cc3)c2cc1OC` [Example 13, N-(4-(6,7-dimethoxyquinolin-4-yloxy)phenyl)-2-(3-fluorophenylamino)benzamide], the IC50 on AuroraB and on AuroraA-TPX2 was less than 0.1 µM in each case. Also, the EC50 in the test on HeLa cells was less than 0.1 µM.
In the case of `CNC(=O)c1cc(Oc2ccc(NC(=O)c3ccccc3Nc3ccccc3)cc2)ccn1` [Example 21, N-methyl-4-(4-(2-(phenylamino)benzamido)phenoxy)picolinamide], the IC50 at AuroraB is 0.1 to 0.5 µM; on AuroraA-TPX2 it was 1 to 5 µM. The EC50 in the test on HeLa cells is 1 to 5 µM.
As for `Nc1nccc(Oc2ccc(NC(=O)c3ccccc3Nc3ccc(F)cc3)cc2)n1` [Example 18, N-(4-(2-aminopyrimidin-4-yloxy)phenyl)-2-(4-fluorophenylamino)benzamide], the IC50 at AuroraB and at AuroraA-TPX2 was 0.1 to 0.5 µM each time. Also, the EC50 in the test with HeLa cells was in the range of 1 to 5 µM.
Turning to `COc1ccc2c(Oc3ccc(NC(=O)c4ccccc4Nc4ccccc4)cc3F)ccnc2c1` [Example 17, N-(3-fluoro-4-(7-methoxyquinolin-4-yloxy)phenyl)-2-(phenylamino)benzamide], the IC50 on AuroraB and on AuroraA-TPX2 was less than 0.1 µM throughout. Besides, the EC50 in the test on HeLa cells lay within 0.1 to 0.5 µM.
`COc1cc2nccc(Oc3ccc(NC(=O)c4ccccc4Nc4ccccc4)cc3)c2cc1OC` [Example 12, N-(4-(6,7-dimethoxyquinolin-4-yloxy)phenyl)-2-(phenylamino)benzamide]: the IC50 on AuroraB and at AuroraA-TPX2 was less than 0.1 µM throughout. Also, the EC50 with HeLa cells was less than 0.1 µM.
With `COc1cnc2c(Oc3ccc(NC(=O)c4ccccc4Nc4ccccc4)cc3)ccnc2c1` [Example 15, N-(4-(7-methoxy-1,5-naphthyridin-4-yloxy)phenyl)-2-(phenylamino)benzamide], the IC50 at AuroraB and at AuroraA-TPX2 was less than 0.1 µM throughout. The EC50 in the test with HeLa cells was less than 0.1 µM.
As to `COc1cnc2c(Oc3ccc(NC(=O)c4cc(F)ccc4Nc4ccccc4)cc3)ccnc2c1` [Example 14, 5-fluoro-N-(4-(7-methoxy-1,5-naphthyridin-4-yloxy)phenyl)-2-(phenylamino)benzamide], the IC50 on AuroraB and on AuroraA-TPX2 was less than 0.1 µM throughout. Further, in the test on HeLa cells, the EC50 was less than 0.1 µM.
On to `COc1cc2nccc(Oc3ccc(NC(=O)c4ccccc4Nc4ccc(F)cc4)cc3)c2cc1OC` [Example 11, N-(4-(6,7-dimethoxyquinolin-4-yloxy)phenyl)-2-(4-fluorophenylamino)benzamide], for which the IC50 on AuroraB and at AuroraA-TPX2 was less than 0.1 µM in each case. Also, the EC50 in the test on HeLa cells is less than 0.1 µM.
On to `COc1cnc2c(Oc3ccc(NC(=O)c4ccccc4NN4CCCCC4)cc3)ccnc2c1` [Example 20, N-(4-(7-methoxy-1,5-naphthyridin-4-yloxy)phenyl)-2-(piperidin-1-ylamino)benzamide], for which the IC50 at AuroraB lay within 0.1 to 0.5 µM; at AuroraA-TPX2, 0.5 to 1 µM. In the test with HeLa cells, the EC50 is 1 to 5 µM.
In the case of `COc1cc2nccc(Oc3ccc(NC(=O)c4ccccc4Nc4ccccc4)cc3F)c2cc1OC` [Example 16, N-(4-(6,7-dimethoxyquinolin-4-yloxy)-3-fluorophenyl)-2-(phenylamino)benzamide], the IC50 at AuroraB and at AuroraA-TPX2 was less than 0.1 µM in each case.
`COc1cnc2c(Sc3ccc(NC(=O)c4ccccc4NN4CCCCC4)cc3)ccnc2c1` [Example 19, N-(4-(7-methoxy-1,5-naphthyridin-4-ylthio)phenyl)-2-(piperidin-1-ylamino)benzamide]: the results for the IC50 on AuroraB and on AuroraA-TPX2 were less than 0.1 µM and 0.5 to 1 µM, respectively. For the same compound, in the test with HeLa cells, the EC50 was in the range of 0.5 to 1 µM.
As for `COc1cnc2c(Sc3ccc(NC(=O)c4ccccc4NN4CCC(OC)CC4)cc3)ccnc2c1` [Example 22, N-(4-(7-methoxy-1,5-naphthyridin-4-ylthio)phenyl)-2-(4-methoxypiperidin-1-ylamino)benzamide], the results for the IC50 on AuroraB and on AuroraA-TPX2 were less than 0.1 µM and 1 to 5 µM, respectively. Moreover, the EC50 in the test on HeLa cells was in the range of 0.5 to 1 µM.

(Values after patent US9126935B2, “Aurora kinase modulators and methods of use” (Amgen Inc., priority 2008, dated 2015).)
